# Measurements taken from patent publication US4499106A, “Lipolytic composition and method of treating obesity” (Boehringer Ingelheim KG, priority 1983, dated 1985).
# “Also recorded” adds a separate entry of the source.
# Tests used:
# [1] = test system: unesterified fatty acids in the blood; assay: Unesterified fatty acids, conscious rat (maximum percentage change vs control); format: in vivo
# Description: (§1) If the effects on the heart (heart rate), circulation (diastolic blood pressure, peripheral vasodilation) and bronchi, on the one hand, and the increase in the unesterified fatty acids in the blood after the administration of Me 693, on the other hand, are compared with the effects of isoprenaline and fenoterol, it is clear that the cardiovascular and bronchospasmolytic effects are much greater after administration of the comparison substances than with the Me 693, whereas the reverse is true of the lipolytic effects.
# (§2) Metabolic and cardiovascular effects and bronchospasmolytic effects of Me
# (§3) isoprenaline and fenoterol in animals of various types. The table gives
# (§4) maximum percentage changes compared with control values.
# [2] = test system: circulation (diastolic blood pressure); assay: Diastolic blood pressure, anesthetized dog (maximum percentage change vs control); format: in vivo
# Description: as §1, §2, §3, §4
# [3] = test system: lactate in the blood plasma; assay: Metabolic effects in blood plasma of fed rats: lactate; format: in vivo, rat; conditions: for Lactate Δ%: blood plasma; for lactacidemia compared with Me 693: vs Me 693, in words
# Description: (§9) Metabolic effects in the blood plasma of fed rats.
# (§10) μmol/l (unesterified fatty acids) and mmol/l (lactate).
# (§11) Averages ± S.E.M. N of the treated groups = 5-6.
# [4] = test system: circulation (peripheral vasodilation); assay: Peripheral vasodilation, anesthetized dog (maximum percentage change vs control); format: in vivo
# Description: as §1, §2, §3, §4
# heart (heart rate) = assay: Heart rate, anesthetized dog (maximum percentage change vs control); format: in vivo; conditions: for Heart Rate Δ%: maximum change; for cardiovascular effects compared with Me 693: vs Me 693, in words
# Description: as §1, §2, §3, §4
# [5] = test system: unesterified fatty acids in the blood plasma; assay: Metabolic effects in blood plasma of fed rats: unesterified fatty acids; format: in vivo, rat; conditions: for Unesterified Fatty Acids Δ%: blood plasma
# Description: as §9, §10, §11
# bronchi (ACh spasm) = assay: Bronchospasmolysis, anesthetized guinea pig (inhibition of ACh spasm); format: in vivo; conditions: for bronchospasmolytic effects compared with Me 693: vs Me 693, in words
# Description: as §1, §2, §3, §4
# [6] = test system: heart rate and diastolic blood pressure; assay: Cardiovascular effects of oral administration to three conscious dogs (heart rate, diastolic blood pressure); format: in vivo, dog; conditions: for Diastolic Blood Pressure Δ% / Heart Rate Δ%: maximum change
# Procedure: (§5) A dose of only 0.1 mg/kg of Me 693 gives virtually a 100% increase in the unesterified fatty acids in the blood while the heart rate and the diastolic blood pressure are unaffected.
# (§6) Metabolic and cardiovascular effects of Me 693 administered
# (§7) orally to three conscious dogs. The table gives the maximum
# (§8) percentage changes compared with the control values.
# [7] = test system: metabolism (development and release of heat); assay: Calorimetric effects after intravenous administration to rabbits; format: in vivo, rabbit; conditions: 0.5 mg/kg intravenously
# [8] = test system: lipolysis and glycogenolysis; assay: Summary of animal experiments: lipolytic and glycogenolytic (lactate) activity; format: in vivo; conditions: in words
# Description: To summarize, the animal experiments with Me 693 have given the following results: […]
# [9] = test system: unesterified fatty acids in the blood; assay: Metabolic effects of oral administration to three conscious dogs (unesterified fatty acids, triglycerides, lactate); format: in vivo, dog; conditions: for Triglycerides Δ% / Unesterified Fatty Acids Δ%: maximum change
# Procedure: as §5, §6, §7, §8
structure (smiles),measurement,setting,value
"CC(Cc1ccc(O)cc1)NCC(O)c1cc(O)cc(O)c1 (stereo not shown) [Fenoterol, fenoterol]",Unesterified Fatty Acids Δ%,[1]; 0.1 mg/kg s.c.,+18%
same,Unesterified Fatty Acids Δ%,[1]; 1.0 mg/kg s.c.,+30%
same,Diastolic Blood Pressure Δ%,[2]; 0.1 μg/kg i.v.,-13%
same,Diastolic Blood Pressure Δ%,[2]; 1 μg/kg i.v.,-33%
same,Diastolic Blood Pressure Δ%,[2]; 10 μg/kg i.v.,-54%
same,Lactate Δ%,[3]; 0.1 mg/kg s.c.,+33%
same,Lactate Δ%,[3]; 1.0 mg/kg s.c.,+109%
same,lactacidemia compared with Me 693,[3],significantly greater
same,Peripheral Vasodilation Δ%,[4]; 1 μg/kg i.a.,-20%
same,Peripheral Vasodilation Δ%,[4]; 3 μg/kg i.a.,-28%
same,Heart Rate Δ%,heart (heart rate); 0.1 μg/kg i.v.,+3%
same,Heart Rate Δ%,heart (heart rate); 1 μg/kg i.v.,+27%
same,Heart Rate Δ%,heart (heart rate); 10 μg/kg i.v.,+50%
same,cardiovascular effects compared with Me 693,heart (heart rate),much greater
same,Unesterified Fatty Acids Δ%,[5]; 0.1 mg/kg s.c.,+18%
same,Unesterified Fatty Acids Δ%,[5]; 1.0 mg/kg s.c.,+30%
same,"Bronchospasmolysis, % Inhibition of ACh spasm",bronchi (ACh spasm); 10 μg/kg i.v.,67-100%
same,bronchospasmolytic effects compared with Me 693,bronchi (ACh spasm),much greater
"CC(C)NCC(O)c1ccc(O)c(O)c1 (stereo not shown) [Isoprenaline, isoprenaline]",Unesterified Fatty Acids Δ%,[1]; 0.1 mg/kg s.c.,+15%
same,Unesterified Fatty Acids Δ%,[1]; 1.0 mg/kg s.c.,+27%
same,Diastolic Blood Pressure Δ%,[2]; 0.1 μg/kg i.v.,-40%
same,Diastolic Blood Pressure Δ%,[2]; 1 μg/kg i.v.,-62%
same,Diastolic Blood Pressure Δ%,[2]; 10 μg/kg i.v.,-71%
same,Lactate Δ%,[3]; 0.1 mg/kg s.c.,+112%
same,Lactate Δ%,[3]; 1.0 mg/kg s.c.,+148%
same,lactacidemia compared with Me 693,[3],significantly greater
same,Peripheral Vasodilation Δ%,[4]; 0.001 μg/kg i.a. (so in the source),-28%
same,Peripheral Vasodilation Δ%,[4]; 0.003 μg/kg i.a.,-24%
same,Peripheral Vasodilation Δ%,[4]; 0.03 μg/kg i.a.,-33%
same,Heart Rate Δ%,heart (heart rate); 0.1 μg/kg i.v.,+18%
same,Heart Rate Δ%,heart (heart rate); 1 μg/kg i.v.,+37%
same,Heart Rate Δ%,heart (heart rate); 10 μg/kg i.v.,+56%
same,cardiovascular effects compared with Me 693,heart (heart rate),much greater
same,Unesterified Fatty Acids Δ%,[5]; 0.1 mg/kg s.c.,+15%
same,Unesterified Fatty Acids Δ%,[5]; 1.0 mg/kg s.c.,+27%
same,"Bronchospasmolysis, % Inhibition of ACh spasm",bronchi (ACh spasm); 10 μg/kg i.v.,76-94%
same,bronchospasmolytic effects compared with Me 693,bronchi (ACh spasm),much greater
"CC(COc1ccccc1)NCC(O)c1ccc(O)c(NS(=O)(=O)N(C)C)c1 (stereo not shown) [Me 693, 1-(4-hydroxy-3-dimethylamino-sulfonamidophenyl)-1-hydroxy-2-(1-phenoxy-isopropylamino)ethane]",heart rate and diastolic blood pressure (in words),[6]; 0.1 mg/kg oral,unaffected
same,Diastolic Blood Pressure Δ%,[6]; 0.1 mg/kg oral,0%
same,Heart Rate Δ%,[6]; 0.1 mg/kg oral,0%
same,Diastolic Blood Pressure Δ%,[6]; 0.3 mg/kg oral,-15%
same,Heart Rate Δ%,[6]; 0.3 mg/kg oral,+36%
same,Diastolic Blood Pressure Δ%,[6]; 1.0 mg/kg oral,-26%
same,Heart Rate Δ%,[6]; 1.0 mg/kg oral,+95%
same,blood pressure (in words),[6]; 0.3 and 1 mg/kg oral,reductions in blood pressure
same,heart rate (in words),[6]; 0.3 and 1 mg/kg oral,dose-dependent increases in heart rate
same,Unesterified Fatty Acids Δ%,[1]; 0.1 mg/kg s.c.,+34%
same,Unesterified Fatty Acids Δ%,[1]; 1.0 mg/kg s.c.,+190%
same,Diastolic Blood Pressure Δ%,[2]; 10 μg/kg i.v.,-24%
same,Diastolic Blood Pressure Δ%,[2]; 20 μg/kg i.v.,-23%
same,Lactate Δ%,[3]; 0.1 mg/kg s.c.,0%
same,Lactate Δ%,[3]; 1.0 mg/kg s.c.,+34%
same,core temperatures,[7],higher core temperatures
same,development and release of heat,[7],increased significantly
same,heart rate and ear temperature,[7],slight increase in heart rate and ear temperature
same,oxygen consumption,[7],increased oxygen consumption
same,respiratory quotient,[7],reduction in the respiratory quotient
same,Peripheral Vasodilation Δ%,[4]; 10 μg/kg i.a.,-14%
same,Peripheral Vasodilation Δ%,[4]; 30 μg/kg i.a.,-15%
same,Heart Rate Δ%,heart (heart rate); 10 μg/kg i.v.,+8%
same,Heart Rate Δ%,heart (heart rate); 20 μg/kg i.v.,+5%
same,differentiation between lipolytic and glycogenolytic activities,[8]; animal experiments,Extreme differentiation between the lipolytic and glycogenolytic activities
same,glycogenolytic effect,[8]; animal experiments,virtually negligible glycogenolytic activity; also recorded: does not have the glycogenolytic effect
same,lipolytic effect,[8]; animal experiments,Strong lipolytic activity; also recorded: particularly long-lasting selective lipolytic effect
same,blood lactate,[8],no changes are observed in blood lactate
same,Unesterified Fatty Acids Δ%,[5]; 0.1 mg/kg s.c.,+34%
same,Unesterified Fatty Acids Δ%,[5]; 1 mg/kg oral,+63%
same,Unesterified Fatty Acids Δ%,[5]; 1.0 mg/kg s.c.,+190%
same,increase in unesterified fatty acids in the blood vs comparison substances,"[5]; identical dosage, vs isoprenaline and fenoterol, in words",much higher increase
same,"Bronchospasmolysis, % Inhibition of ACh spasm",bronchi (ACh spasm); 100 μg/kg i.v.,0-2%
same,Triglycerides Δ%,[9]; 0.1 mg/kg oral,+18%
same,Triglycerides Δ%,[9]; 0.3 mg/kg oral,+10%
same,Unesterified Fatty Acids Δ%,[9]; 0.3 mg/kg oral,+95%
same,Triglycerides Δ%,[9]; 1.0 mg/kg oral,+37%
same,Unesterified Fatty Acids Δ%,[9]; 1.0 mg/kg oral,+112%
same,unesterified fatty acids (in words),[9]; 0.3 and 1 mg/kg oral,increased still further to a high level
